Assay results: ChEMBL document CHEMBL1151930, “Physicochemical determinants of human renal clearance” (J Med Chem, 2009)

Experiment: clinical
Details: human, in vivo

| SMILES | CL renal [mL/min/kg] |
| --- | --- |
| CCCc1nc2c(C)cc(-c3nc4ccccc4n3C)cc2n1Cc1ccc(-c2ccccc2C(=O)O)cc1 | 0.08 |
| CCCCC(=O)N(Cc1ccc(-c2ccccc2-c2nnn[nH]2)cc1)[C@H](C(=O)O)C(C)C | 0.14 |
| CNS(=O)(=O)CCc1ccc2[nH]cc(C3CCN(C)CC3)c2c1 | 3.1 |
| CNS(=O)(=O)Cc1ccc2[nH]cc(CCN(C)C)c2c1 | 3.7 |
| COc1cc2c3cc1Oc1cc(ccc1O)C[C@@H]1c4c(cc(OC)c(O)c4Oc4ccc(cc4)C[C@@H]3N(C)CC2)CC[N+]1(C)C.[Cl-] | 2.14 |
| C[C@H](N[C@@H](CCc1ccccc1)C(=O)O)C(=O)N1Cc2ccccc2C[C@H]1C(=O)O | 0.9 |
| CO/N=C(\C(=O)N[C@@H]1C(=O)N2C(C(=O)O)=C(C)CS[C@H]12)c1csc(N)n1 | 1.5 |
| N=C(N)c1ccc(CNC(=O)[C@@H]2CCN2C(=O)[C@H](NCC(=O)O)C2CCCCC2)cc1 | 1.6 |
| CCCCCCCCCC(=O)N[C@@H](Cc1c[nH]c2ccccc12)C(=O)N[C@H](CC(N)=O)C(=O)N[C@@H](CC(=O)O)C(=O)N[C@@H]1C(=O)NCC(=O)N[C@@H](CCCN)C(=O)N[C@@H](CC(=O)O)C(=O)N[C@H](C)C(=O)N[C@@H](CC(=O)O)C(=O)NCC(=O)N[C@H](CO)C(=O)N[C@@H]([C@H](C)CC(=O)O)C(=O)N[C@@H](CC(=O)c2ccccc2N)C(=O)O[C@@H]1C | 0.09 |
| CC(C)(C)NC(=O)[C@@H]1CN(Cc2cccnc2)CCN1C[C@@H](O)C[C@@H](Cc1ccccc1)C(=O)N[C@H]1c2ccccc2C[C@H]1O.O | 1.53 |
| Cc1cccc(C)c1NC(=O)NCCCNC(C)C | 2.3 |
| Nc1nc(N)c2nc(-c3ccccc3)c(N)nc2n1 | 2.77 |
| C=C1CC[C@@]2(O)[C@H]3Cc4ccc(O)c5c4[C@@]2(CCN3CC2CC2)[C@H]1O5 | 0.75 |
| CN(C)CCCN1c2ccccc2CCc2cc(O)ccc21 [2-HYDROXYIMIPRAMINE] | 0.3 |
| CC(C)=CCN1CC[C@]2(C)c3cc(O)ccc3C[C@H]1[C@H]2C [(+)-PENTAZOCINE] | 2.99 |
| Nc1nc(NC2CC2)c2ncn([C@H]3C=C[C@@H](CO)C3)c2n1 [ABACAVIR] | 0.15 |
| CC(=O)Nc1nnc(S(N)(=O)=O)s1 [ACETAZOLAMIDE] | 0.64 |

| SMILES | CL renal [mL/min/kg] |
| --- | --- |
| Nc1ncnc2c1ncn2CCOCP(=O)(O)O [ADEFOVIR] | 3.33 |
| CN(C)Cc1nnc2n1-c1ccc(Cl)cc1C(c1ccccc1)=NC2 [ADINAZOLAM] | 2.6 |
| CN(C)CCc1c[nH]c2ccc(CS(=O)(=O)N3CCCC3)cc12 [ALMOTRIPTAN] | 5.79 |
| Cc1nnc2n1-c1ccc(Cl)cc1C(c1ccccc1)=NC2 [ALPRAZOLAM] | 0.15 |
| C=CCc1ccccc1OCC(O)CNC(C)C (centres undefined) [ALPRENOLOL] | 0.6 |
| NC12CC3CC(CC(C3)C1)C2 [AMANTADINE] | 4.8 |
| CN(C)CCC=C1c2ccccc2CCc2ccccc21 [AMITRIPTYLINE] | 0.12 |
| CC1(C)S[C@@H]2[C@H](NC(=O)[C@H](N)c3ccc(O)cc3)C(=O)N2[C@H]1C(=O)O [AMOXICILLIN] | 1.89 |
| CC1(C)S[C@@H]2[C@H](NC(=O)[C@H](N)c3ccccc3)C(=O)N2[C@H]1C(=O)O [AMPICILLIN] | 1.2 |
| Cc1cc(=O)n(-c2ccccc2)n1C [ANTIPYRINE] | 0.02 |
| CC(=O)Oc1ccccc1C(=O)O [ASPIRIN] | 0.24 |
| CNCC[C@@H](Oc1ccccc1C)c1ccccc1 [ATOMOXETINE] | 0.28 |
| CC1(C)S[C@@H]2[C@H](NC(=O)[C@H](NC(=O)N3CCNC3=O)c3ccccc3)C(=O)N2[C@H]1C(=O)O [AZLOCILLIN] | 1.67 |
| C[C@H]1C[C@H]2[C@@H]3CCC4=CC(=O)C=C[C@]4(C)[C@@]3(F)[C@@H](O)C[C@]2(C)[C@@]1(O)C(=O)CO [BETAMETHASONE] | 0.14 |
| CC(C)NCC(O)COc1ccc(CCOCC2CC2)cc1 (centres undefined) [BETAXOLOL] | 0.7 |
| COc1ccc(CCNCC(O)COc2cccc(C)c2)cc1OC (centres undefined) [BEVANTOLOL] | 0.06 |
| C[C@@H](O)[C@H]1C(=O)N2C(C(=O)[O-])=C(SC3Cn4cnc[n+]4C3)[C@H](C)[C@H]12 (some centres undefined) [BIAPENEM] | 1.23 |
